The results in this text go back to ChEMBL document CHEMBL3352200, “Thio-sugar motif of functional CARB-pharmacophore for antineoplastic activity. Part 2” (Bioorg Med Chem Lett, 2014).

For data set [1], the system named is A549. The data set can be described thus: Cytotoxicity against human A549 cells after 14 hrs by CCK-8 assay. The data set is classed as functional, cell-based. The following applies: A549, 14 h. Background: Formazan colour is commonly taken as a measure of viable cells.
Data set [2] has as its system HeLa. Kind of data set: Cytotoxicity against human HeLa cells after 14 hrs by CCK-8 assay. The data set is classed as functional, cell-based.
Data set [3] deals with MCF7. Kind of data set: Cytotoxicity against human MCF7 cells after 14 hrs by CCK-8 assay. The data set is classed as functional, cell-based. The following applies: MCF7, 14 h.
Data set [4] relates to LoVo. The data set can be described thus: Cytotoxicity against human LoVo cells after 14 hrs by CCK-8 assay. Format: functional, cell-based.
The nature of data set [5]: Cytotoxicity against human PNT2 cells at 8.6 to 2200 uM after 14 hrs by CCK-8 assay. The data set is classed as cell-based. The following applies: pnt2, 14 h.
For data set [6], the system named is LoVo. Kind of data set: Induction of apoptosis in human LoVo cells assessed as viable cells at 69 uM after 4 hrs by FITC Annexin-V/propidium iodide staining-based flow cytometry (reference value: 79.50%). Format: functional. The following applies: read-out: Activity. A general note: Flow cytometry measures light scatter and fluorescence of single cells or particles in a stream.

Data set [7] relates to LoVo. The data set can be described thus: Induction of apoptosis in human LoVo cells assessed as viable cells at 550 uM after 4 hrs by FITC Annexin-V/propidium iodide staining-based flow cytometry (reference value: 79.50%). The data set is classed as functional. The following applies: read-out: Activity.
For data set [8], the system named is LoVo. The data set can be described thus: Induction of apoptosis in human LoVo cells assessed as apoptotic cells at 69 uM after 4 hrs by FITC Annexin-V/propidium iodide staining-based flow cytometry (reference value: 20.50%). The data set is classed as functional.
The subject of data set [9] is LoVo. Kind of data set: Induction of apoptosis in human LoVo cells assessed as apoptotic cells at 550 uM after 4 hrs by FITC Annexin-V/propidium iodide staining-based flow cytometry (reference value: 20.50%). Format: functional.
In data set [10] the test system is A549. Kind of data set: Induction of apoptosis in human A549 cells assessed as viable cells at 34 uM after 4 hrs by FITC Annexin-V/propidium iodide staining-based flow cytometry (reference value: 84.40%). The following applies: A549, 4 h, read-out: Activity. The data set is classed as functional.
The test system of data set [11] is A549. Kind of data set: Induction of apoptosis in human A549 cells assessed as viable cells at 275 uM after 4 hrs by FITC Annexin-V/propidium iodide staining-based flow cytometry (reference value: 84.40%). Format: functional. The following applies: A549, 4 h, read-out: Activity.
Data set [12] has as its system A549. The data set can be described thus: Induction of apoptosis in human A549 cells assessed as apoptotic cells at 34 uM after 4 hrs by FITC Annexin-V/propidium iodide staining-based flow cytometry (reference value: 15.60%). The data set is classed as functional.
Data set [13] concerns A549. The data set can be described thus: Induction of apoptosis in human A549 cells assessed as apoptotic cells at 275 uM after 4 hrs by FITC Annexin-V/propidium iodide staining-based flow cytometry (reference value: 15.60%). Format: functional.
Data set [14] has as its system MCF7. The data set can be described thus: Induction of apoptosis in human MCF7 cells assessed as viable cells at 17 uM after 4 hrs by FITC Annexin-V/propidium iodide staining-based flow cytometry (reference value: 70.40%). Format: functional. The following applies: MCF7, 4 h, read-out: Activity.
Data set [15] relates to MCF7. Kind of data set: Induction of apoptosis in human MCF7 cells assessed as viable cells at 137 uM after 4 hrs by FITC Annexin-V/propidium iodide staining-based flow cytometry (reference value: 70.40%). The data set is classed as functional. The following applies: MCF7, 4 h, read-out: Activity.
The test system of data set [16] is MCF7. The data set can be described thus: Induction of apoptosis in human MCF7 cells assessed as apoptotic cells at 17 uM after 4 hrs by FITC Annexin-V/propidium iodide staining-based flow cytometry (reference value: 29.60%). Format: functional.
Data set [17] concerns MCF7. Kind of data set: Induction of apoptosis in human MCF7 cells assessed as apoptotic cells at 137 uM after 4 hrs by FITC Annexin-V/propidium iodide staining-based flow cytometry (reference value: 29.60%). Format: functional.
Data set [18] deals with HeLa. Kind of data set: Induction of apoptosis in human HeLa cells assessed as viable cells at 17 uM after 4 hrs by FITC Annexin-V/propidium iodide staining-based flow cytometry (reference value: 87.00%). The following applies: read-out: Activity. The data set is classed as functional.
Data set [19] concerns HeLa. The data set can be described thus: Induction of apoptosis in human HeLa cells assessed as viable cells at 137 uM after 4 hrs by FITC Annexin-V/propidium iodide staining-based flow cytometry (reference value: 87.00%). The following applies: read-out: Activity. The data set is classed as functional.
The subject of data set [20] is HeLa. The data set can be described thus: Induction of apoptosis in human HeLa cells assessed as apoptotic cells at 17 uM after 4 hrs by FITC Annexin-V/propidium iodide staining-based flow cytometry (reference value: 13.00%). The data set is classed as functional.
Data set [21] has as its system HeLa. The data set can be described thus: Induction of apoptosis in human HeLa cells assessed as apoptotic cells at 137 uM after 4 hrs by FITC Annexin-V/propidium iodide staining-based flow cytometry (reference value: 13.00%). The data set is classed as functional.
Data set [22] in a line: Lipophilicity, log P of the compound. Format: physicochemical. The following applies: octanol/water.
The subject of data set [23] is LoVo. The data set can be described thus: Induction of apoptosis in human LoVo cells assessed as viable cells at 34 uM after 4 hrs by FITC Annexin-V/propidium iodide staining-based flow cytometry (reference value: 79.50%). Format: functional. The following applies: read-out: Activity.
The subject of data set [24] is LoVo. Kind of data set: Induction of apoptosis in human LoVo cells assessed as viable cells at 275 uM after 4 hrs by FITC Annexin-V/propidium iodide staining-based flow cytometry (reference value: 79.50%). Format: functional. The following applies: read-out: Activity.
For data set [25], the system named is LoVo. Kind of data set: Induction of apoptosis in human LoVo cells assessed as apoptotic cells at 34 uM after 4 hrs by FITC Annexin-V/propidium iodide staining-based flow cytometry (reference value: 20.50%). Format: functional.
Data set [26] deals with LoVo. The data set can be described thus: Induction of apoptosis in human LoVo cells assessed as apoptotic cells at 275 uM after 4 hrs by FITC Annexin-V/propidium iodide staining-based flow cytometry (reference value: 20.50%). The data set is classed as functional.
The test system of data set [27] is A549. Kind of data set: Induction of apoptosis in human A549 cells assessed as viable cells at 17 uM after 4 hrs by FITC Annexin-V/propidium iodide staining-based flow cytometry (reference value: 84.40%). Format: functional. The following applies: A549, 4 h, read-out: Activity.
In data set [28] the test system is A549. Kind of data set: Induction of apoptosis in human A549 cells assessed as viable cells at 137 uM after 4 hrs by FITC Annexin-V/propidium iodide staining-based flow cytometry (reference value: 84.40%). The data set is classed as functional. The following applies: A549, 4 h, read-out: Activity.
For data set [29], the system named is A549. Kind of data set: Induction of apoptosis in human A549 cells assessed as apoptotic cells at 17 uM after 4 hrs by FITC Annexin-V/propidium iodide staining-based flow cytometry (reference value: 15.60%). Format: functional.
For data set [30], the system named is A549. Kind of data set: Induction of apoptosis in human A549 cells assessed as apoptotic cells at 137 uM after 4 hrs by FITC Annexin-V/propidium iodide staining-based flow cytometry (reference value: 15.60%). The data set is classed as functional.
Data set [31] has as its system MCF7. The data set can be described thus: Induction of apoptosis in human MCF7 cells assessed as viable cells at 34 uM after 4 hrs by FITC Annexin-V/propidium iodide staining-based flow cytometry (reference value: 70.40%). The data set is classed as functional. The following applies: MCF7, 4 h, read-out: Activity.
For data set [32], the system named is MCF7. The data set can be described thus: Induction of apoptosis in human MCF7 cells assessed as viable cells at 275 uM after 4 hrs by FITC Annexin-V/propidium iodide staining-based flow cytometry (reference value: 70.40%). Format: functional. The following applies: MCF7, 4 h, read-out: Activity.
The test system of data set [33] is MCF7. Kind of data set: Induction of apoptosis in human MCF7 cells assessed as apoptotic cells at 34 uM after 4 hrs by FITC Annexin-V/propidium iodide staining-based flow cytometry (reference value: 29.60%). The data set is classed as functional.
In data set [34] the test system is MCF7. Kind of data set: Induction of apoptosis in human MCF7 cells assessed as apoptotic cells at 275 uM after 4 hrs by FITC Annexin-V/propidium iodide staining-based flow cytometry (reference value: 29.60%). Format: functional.

Broadly, the IC50 is the concentration needed to halve the response being measured. High values mean lower potency, low ones higher potency. The term logP denotes the decadic logarithm of the partition coefficient of the neutral form, usually between octanol and water. Lower therefore signals lower lipophilicity. `O=C(O)c1ccccc1S[C@H]1CC(=O)[C@@H]2OC[C@H]1O2`: the IC50 in the data set with A549 [1] was 311 µM; with HeLa [2], 434 µM; in the data set on MCF7 [3], 218 µM; in the data set on LoVo [4], 641 µM. For the same compound, the Activity in data set [5] was 10%; in the data set with LoVo [8], 29.1%; in the data set with LoVo [9] it was 62.2%; with A549 [12], 27.4%; in the data set with A549 [13], 37.84%; with MCF7 [16], 39.1%. Besides, the Activity is listed as 62.5% in the data set on MCF7 [17], 24.5% in the data set with HeLa [20] and 25.8% in the data set with HeLa [21]. Besides, the viability at 69 µM with LoVo [6] amounted to 70.9%. Further, the viability at 550 µM in the data set with LoVo [7] is 37.8%. For the same compound, the viability at 34 µM with A549 [10] was determined as 72.6%. For the same compound, the viability at 275 µM with A549 [11] was 62.2%. In addition, the viability at 17 µM amounted to 60.9% in the data set with MCF7 [14] and 75.5% in the data set with HeLa [18]. The viability at 137 µM in the data set with MCF7 [15] amounted to 37.5%; in the data set on HeLa [19], 74.2%. The logP in data set [22] was found to be 1.28.
For the compound `CC(=O)OC[C@H]1O[C@@H](S[C@H]2CC(=O)[C@@H]3OC[C@H]2O3)[C@H](OC(C)=O)[C@@H](OC(C)=O)[C@H]1OC(C)=O`, the IC50 with A549 [1] amounted to 467 µM; in the data set with HeLa [2] it was 676 µM; in the data set on MCF7 [3], 344 µM; in the data set with LoVo [4], 624 µM. For the same compound, the Activity in data set [5] was 10%; in the data set on LoVo [25] it was 34.9%; with LoVo [26], 30%; in the data set with A549 [29], 29%; in the data set on A549 [30], 21.9%; in the data set on MCF7 [33], 42.2%. Besides, the Activity with MCF7 [34] is given as 19.2%; with HeLa [20] it was 25.9%; with HeLa [21], 62.8%. The viability at 34 µM was determined as 65.1% in the data set on LoVo [23] and 57.8% with MCF7 [31]. Besides, the viability at 275 µM with LoVo [24] worked out at 70%; with MCF7 [32], 80.8%. In addition, the viability at 17 µM came to 71% in the data set with A549 [27] and 74.1% with HeLa [18]. Moreover, the viability at 137 µM was 78.1% in the data set on A549 [28] and 37.2% in the data set on HeLa [19]. For the same compound, the logP in [22] is -1.13.
